Experiments:
retinas from rats = assay: MNU-induced retinal apoptosis in vivo
Procedure: The same materials and immunohystochemical and quantification methods as in Experiment A were used. Instead of using Paraquat for inducing apoptosis, N-Nitroso-N-methylurea (MNU) (Sigma-Alldrich) was used. Instead of analysing cultures in vitro, as in Experiment A, retins from sacrificed Wistar albino rats were analysed. For that purpose, 8 rats S-D with 42 days of age were selected and fed for 4 weeks with a standard basal diet. Each animal was fed in a different way: one rat was on a standard on control diet, while for the other 7 rats this diet was modified with DHA at 15%, having different concentrations of PhA as in Experiment A: 0/4/20/100/500/2500/12500 μgPhA/g of oil. After these 4 weeks, they were injected a single intraperitoneal injection of MNU (75 mg/kg body weight). All rats were on the same diet for 6 days, being sacrificed at the 7th day, after having fast for 24 hours, when the extraction of retinas was carried out, following the fixation and immunohystochemical processes as in Experiment A. For the cytochemical studies, 10 fields/samples were randomly quantified, where results represent the 10 eye/sample mean.

[1] = test system: leukotrienes, prostaglandin E2, prostaglandin F2; conditions: cited from earlier work
photoreceptors = assay: Paraquat-induced photoreceptor apoptosis in vitro; assay type: cell-based, Wistar albino rats
Procedure: Tyramide signal amplification (TSA)-FISH PerkinElmer, Boston, Mass., USA.); secondary antibodies, monoclonal antibodies to-Bax (sc-7480), Bcl-2 (sc-7382), rodopsine RET-P1 (sc-57433) (Santa Cruz Biotechnology, Inc.—USA), PhA, Docosahexaenoic acid, Paraquat Dichloride, (Sigma-Alldrich). Solvents and reactors had HPLC and analytic grade.
Purified cultures of neurons from Wistar albino rats were prepared according to Politi et al., (1966) and treated in a poli-ornithine medium as in Adler-R (1982). On the first day of culture, equal concentrations of DHA (9 mM) were added to neuron cultures, with 7 different concentrations of PhA ([…]), usually found in marine origin oils rich in DHA, and 2 controls without DHA, with or without Paraquat. On the third day of culture, Paraquat was added, incubating it for 24 h before fixing it for an hour with paraformaldehyde in a phosphate buffered saline (0.9% NaCl in 0.01 M NaH2PO4 [pH 7.4], following 15 minutes with Triton X-100 (0.1%). In the apoptosis, the expression of Bax and Bcl-2 was determined and quantified according to the method Rotstein-N P et al. (2003). For the cytochemical studies, 10 fields/samples were randomly quantified, where results represent the of 3 samples/plate mean for each concentration of DHA with PhA.

[2] = toxic at doses as low as; cited from earlier work
[3] = DHA oils <5 μg/g of PhA compared with larger concentrations

Row | SMILES | ratio Bcl-2/Bax (retinas from rats; 20 μg/g of PhA versus rats fed with <5 μg/g) | neutralisation of the inhibitor effect of the apoptosis (retinas from rats; PhA up to 12500 μgPhA/g of oil) | anti-apoptotic activity in photoreceptors (retinas from rats; diet with DHA at 15%, PhA between 0 and 20 μg/g, MNU 75 mg/kg i.p.) | physiological activity as an inhibitor of apoptosis (FIG. 2) (retinas from rats; oral consumption of DHA <5 μg/g of PhA) | anti-apoptotic activity and markers Bax and Bcl-2 with regards to DHA without PhA added (retinas from rats; rats fed with DHA <5 μg/g) | inhibition of the synthesis of leukotrienes [1] [%] | reduction of prostaglandin E2 [1] [%] | reduction of prostaglandin F2 [1] [%] | anti-apoptotic activity in photoreceptors (photoreceptors; DHA 9 mM with 0 and 4 μg/g of PhA, compared with ≧20 and ≧100 μg/g) | inhibitory activity of apoptosis (FIG. 1) (photoreceptors; [3]) | oxidative stress produced (FIG. 1) (photoreceptors; [3]) | anti-apoptotic activity in photoreceptors (photoreceptors; DHA with ≧20 μg/g and ≧100 μg/g of PhA) | activity to inhibit apoptosis of photoreceptors (photoreceptors; PhA concentration 2500 μg/g) | apoptosis of photoreceptors (photoreceptors; PhA concentrations higher than 2500 μg/g) | oxidative stress (Bcl-2/Bax index) (photoreceptors; PhA ≦20 μg/g compared with ≧100 μg/g) | toxic dose [2] [μmol/mg fat]
1 | CC/C=C\C/C=C\C/C=C\C/C=C\C/C=C\C/C=C\CCC(=O)O [DHA] | significantly lower | no neutralisation | greater anti-apoptotic activity | greater physiological activity | do not reveal alterations | 76 | 40 | 81 | notably higher | greater inhibitory activity of apoptosis | less | significantly reduced | neutralised | apoptosis of photoreceptors is induced | significantly less oxidative stress | –
2 | CC(C)CCCC(C)CCCC(C)CCCC(C)CC(=O)O (stereo not shown) [PhA, phytanic acid] | – | – | – | – | – | – | – | – | – | – | – | – | – | – | – | 0.1
